Results as given in patent US12630509B2, “Heterocyclic NMDA antagonists” (TAKEDA PHARMACEUTICAL COMPANY LIMITED, priority 2019, dated 2026).

Biological target: NMDA receptor composed of four subunits including two sets of heterodimers of NR1 and NR2B (GRIN1/GRIN2B) expressed in HEK 293 cells (Homo sapiens, UniProt Q13224)
Experiment: NR2B Ca2+ influx assay
Assay type: cell-based
Settings: HEK293, final concentration 10 μM; glutamic acid and glycine induced Ca2+ influx, HEK 293 cells expressing human GRIN1 and GRIN2B; read-out: % inhibited(10 μM)
Description: The HEK 293 cells that express GRIN1 and GRIN2B were purchased from ChanTest (human NMDA (NR1/NR2B) receptor-expressing, stable replicating cell line (HEK 293) catalog no. CT6121).
Intracellular calcium-ion (Ca^2+) influx caused by glycine and glutamic acid respectively binding to NR1 and NR2B was used as an index of NMDA receptor activation.
The HEK 293 cells expressing GRIN1 and GRIN2B were cultured in a cell culture flask in an incubator (37° C., in 5% CO2) using a DMEM/F-12 (Cosmo Bio, 10-092-CM) medium supplemented with 10% FBS (fetal bovine serum, AusGene), 100 units/mL penicillin, 100 μg/mL streptomycin, 500 μg/mL neomycin, 100 μg/mL Zeocin (registered trademark of Invitrogen), and 5 μg/mL blasticidin.
On the day before the assay, the cells were detached from the flask by trypsinization, suspended in a seeding medium (DMEM (Invitrogen, 31053) supplemented with 10% FBS, 100 units/mL penicillin, and 100 μg/mL streptomycin) so as to be 8×10^5 cells/mL, seeded at 25 μL per well in a 384-well plate (Falcon, 356663) so as to be 20,000 cells/well, and cultured overnight using the incubator. On the day of the assay, tetracycline (Wako Pure Chemical, 209-16561) was diluted with the seeding medium at 2 μg/mL, and added at 25 μL/well to the plate into which the cells were seeded, and this was cultured for 2 hours in the incubator. Afterward, the medium was removed and washed with an assay buffer (137 mM NaCl, 4 mM KCl, 1.8 mM CaCl2), 10 mM HEPES (pH 7.2), 10 mM glucose, 0.1% BSA) at 50 μL/well. Next, a loading buffer (buffer wherein 2.5 μM Fluo-4 AM, 2 mM amaranth, and 1 mM tartrazine are added to the assay buffer) was added at 25 μL/well, and this was incubated in the incubator for 30 minutes and for 15 minutes at room temperature. Solutions wherein the Example compounds were diluted with the above-mentioned assay buffer so as to be 30 μM (final concentration 10 μM) were added at 25 μL/well, and these were left standing for 15 minutes at room temperature. Using FDSS7000EX/μCELL (Hamamatsu Photonics), an assay buffer including 30 μM glutamic acid and 30 μM glycine was added at 25 μL/well, and a fluorescence signal of an Excitation wavelength of 480 nm and an Emission wavelength of 540 nm was measured every 3 seconds for 5 minutes. The inhibitory activity was calculated as a relative activity value (inhibitory rate) wherein relative to an integrated value of florescence values of each well, an integrated value of fluorescence values of a well into which an assay buffer without glutamic acid and glycine was defined as 100% inhibition.

NMDA receptor composed of four subunits including two sets of heterodimers of NR1 and NR2B (GRIN1/GRIN2B) expressed in HEK 293 cells, sequence (Q13224 27-1484, other chains not shown): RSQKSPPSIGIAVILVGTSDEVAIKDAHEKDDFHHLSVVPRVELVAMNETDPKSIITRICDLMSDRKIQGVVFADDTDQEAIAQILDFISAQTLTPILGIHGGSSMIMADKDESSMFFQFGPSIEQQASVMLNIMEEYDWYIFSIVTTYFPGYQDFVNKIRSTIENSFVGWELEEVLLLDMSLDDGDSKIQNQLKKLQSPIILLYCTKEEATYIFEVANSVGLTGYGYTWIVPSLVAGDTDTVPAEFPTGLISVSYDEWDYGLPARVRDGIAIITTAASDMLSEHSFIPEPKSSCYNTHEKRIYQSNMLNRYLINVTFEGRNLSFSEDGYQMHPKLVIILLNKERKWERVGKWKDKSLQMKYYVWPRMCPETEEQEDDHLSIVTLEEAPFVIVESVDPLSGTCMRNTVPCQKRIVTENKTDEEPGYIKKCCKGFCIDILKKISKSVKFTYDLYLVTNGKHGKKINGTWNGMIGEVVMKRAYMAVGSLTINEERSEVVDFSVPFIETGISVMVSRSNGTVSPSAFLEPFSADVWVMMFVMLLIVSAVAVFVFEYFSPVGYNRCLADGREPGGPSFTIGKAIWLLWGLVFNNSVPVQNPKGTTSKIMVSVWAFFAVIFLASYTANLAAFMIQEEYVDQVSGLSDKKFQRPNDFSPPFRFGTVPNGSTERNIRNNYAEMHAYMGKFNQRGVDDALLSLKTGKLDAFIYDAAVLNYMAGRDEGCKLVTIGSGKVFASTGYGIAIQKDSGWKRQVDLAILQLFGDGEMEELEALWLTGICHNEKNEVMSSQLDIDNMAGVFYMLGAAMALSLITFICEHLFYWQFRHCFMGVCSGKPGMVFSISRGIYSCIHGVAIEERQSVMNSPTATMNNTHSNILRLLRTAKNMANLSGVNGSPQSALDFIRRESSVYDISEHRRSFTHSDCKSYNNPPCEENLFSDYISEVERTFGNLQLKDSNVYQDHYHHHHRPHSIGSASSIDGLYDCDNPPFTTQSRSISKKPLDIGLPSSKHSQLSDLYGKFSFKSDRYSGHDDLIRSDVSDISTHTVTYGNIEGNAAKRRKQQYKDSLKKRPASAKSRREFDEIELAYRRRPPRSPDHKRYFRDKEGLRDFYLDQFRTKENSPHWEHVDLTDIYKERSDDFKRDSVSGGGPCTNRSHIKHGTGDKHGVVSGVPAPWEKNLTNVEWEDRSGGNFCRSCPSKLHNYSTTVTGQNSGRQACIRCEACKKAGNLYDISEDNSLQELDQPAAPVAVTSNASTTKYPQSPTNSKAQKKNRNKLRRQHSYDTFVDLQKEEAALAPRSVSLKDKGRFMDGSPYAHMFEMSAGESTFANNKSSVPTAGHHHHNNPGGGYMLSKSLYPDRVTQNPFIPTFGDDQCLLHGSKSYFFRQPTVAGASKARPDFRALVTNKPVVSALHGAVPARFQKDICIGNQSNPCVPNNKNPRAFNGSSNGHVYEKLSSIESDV

Structure (SMILES)	inhibition at 10 µM
Cc1ccc(Oc2ccc(CN3C(=O)C[C@H](O)[C@@H]3C)cn2)cc1 [Example 13, (4S,5S)-4-hydroxy-5-methyl-1-{[6-(4-methylphenoxy)pyridin-3-yl]methyl}pyrrolidin-2-one]	97%
C[C@H]1CNC(=O)N1Cc1ccc(Oc2ccc(F)cc2F)nc1 [Example 35, (5S)-1-{[6-(2,4-difluorophenoxy)pyridin-3-yl]methyl}5-methylimidazolidin-2-one]	96%
Cc1ccc(Oc2ccc(CN3C(=O)CCC3C(F)(F)F)cn2)cc1 (stereo not drawn) [Example 29, 1-{[6-(4-methylphenoxy)pyridin-3-yl]methyl}-5-(trifluoromethyl)pyrrolidin-2-one]	93%
Cc1ccc(Oc2ccc(CN3C(=O)OCC3C(F)F)cn2)c(F)c1 (stereo not drawn) [Example 40, 4-(difluoromethyl)-3-{[6-(2-fluoro-4-methylphenoxy)pyridin-3-yl]methyl}-1,3-oxazolidin-2-one]	95%
Cc1ccc(Oc2ncc(CN3C(=O)CC[C@@H]3C)cn2)c(F)c1 [Example 44, (5S)-1-{[2-(2-fluoro-4-methylphenoxy)pyrimidin-5-yl]methyl}-5-methylpyrrolidin-2-one]	97%
C[C@H]1[C@@H](O)CC(=O)N1Cc1ccc(Oc2c(F)cc(F)cc2F)nc1 [Example 27, (4S,5S)-4-hydroxy-5-methyl-1-{[6-(2,4,6-trifluorophenoxy)pyridin-3-yl]methyl}pyrrolidin-2-one]	97%
C[C@H]1COC(=O)N1Cc1ccc(Oc2ccc(C(F)F)cc2F)nc1 [Example 50, (4S)-3-({6-[4-(difluoromethyl)-2-fluorophenoxy]pyridin-3-yl}methyl)-4-methyl-1,3-oxazolidin-2-one]	98%
Cc1ccc(Oc2ccc(CN3C(=O)CC[C@@H]3C)cn2)cc1 [Example 21, (5S)-5-methyl-1-{[6-(4-methylphenoxy)pyridin-3-yl]methyl}pyrrolidin-2-one]	98%
C[C@H]1CCC(=O)N1Cc1ccc(Oc2ccc(F)cc2F)nc1 [Example 48, (5S)-1-{[6-(2,4-difluorophenoxy)pyridin-3-yl]methyl}-5-methylpyrrolidin-2-one]	98%
Cc1ccc(Oc2ccc(CN3C(=O)CCC3C)cc2)cc1 (stereo not drawn) [Example 1, 5-methyl-1-{[4-(4-methylphenoxy)phenyl]methyl}pyrrolidin-2-one]	99%
C[C@H]1CCC(=O)N1Cc1cnc(Oc2ccc(Cl)cc2F)nc1 [Example 46, (5S)-1-{[2-(4-chloro-2-fluorophenoxy)pyrimidin-5-yl]methyl}-5-methylpyrrolidin-2-one]	97%
Cc1ccc(Oc2ccc(CN3C(=O)C[C@H](O)[C@@H]3C)nc2)cc1 [Example 16, (4S,5S)-4-hydroxy-5-methyl-1-{[5-(4-methylphenoxy)pyridin-2-yl]methyl}pyrrolidin-2-one]	95%
C[C@H]1CNC(=O)N1Cc1ccc(Oc2c(F)cc(F)cc2F)nc1 [Example 33, (5S)-5-methyl-1-{[6-(2,4,6-trifluorophenoxy)pyridin-3-yl]methyl}imidazolidin-2-one]	97%
C[C@H]1[C@@H](O)C(F)(F)C(=O)N1Cc1ccc(Oc2ccc(F)cc2F)nc1 [Example 36, (4R,5S)-1-{[6-(2,4-difluorophenoxy)pyridin-3-yl]methyl}-3,3-difluoro-4-hydroxy-5-methylpyrrolidin-2-one]	97%
C[C@H]1[C@@H](O)C(F)(F)C(=O)N1Cc1ccc(Oc2c(F)cc(F)cc2F)nc1 [Example 34, (4R,5S)-3,3-difluoro-4-hydroxy-5-methyl-1-{[6-(2,4,6-trifluorophenoxy)pyridin-3-yl]methyl}pyrrolidin-2-one]	97%
Cc1ccc(Oc2cnc(CN3C(=O)CCC3C)cn2)cc1 (stereo not drawn) [Example 4, 5-methyl-1-{[5-(4-methylphenoxy)pyrazin-2-yl]methyl}yrrolidin-2-one]	93%
Cc1ccc(Oc2ccc(CN3C(=O)OCC3CF)cn2)c(F)c1 (stereo not drawn) [Example 39, 4-(fluoromethyl)-3-{[6-(2-fluoro-4-methylphenoxy)pyridin-3-yl]methyl}-1,3-oxazolidin-2-one]	92%
Cc1ccc(Oc2ncc(CN3C(=O)CCC3C)cn2)cc1 (stereo not drawn) [Example 5, 5-methyl-1-{[2-(4-methylphenoxy)pyrimidin-5-yl]methyl}pyrrolidin-2-one]	91%
Cc1ccc(Oc2cnc(CN3C(=O)C[C@H](O)[C@@H]3C)cn2)cc1 [Example 19, (4S,5S)-4-hydroxy-5-methyl-1-{[5-(4-methylphenoxy)pyrazin-2-yl]methyl}pyrrolidin-2-one]	82%
Cc1ccc(Oc2ccc(CN3C(=O)C[C@H](O)[C@H]3C)cc2)cc1 [Example 11, (4S,5R)-4-hydroxy-5-methyl-1-{[4-(4-methylphenoxy)pheny]methyl}pyrrolidin-2-one]	91%
C[C@H]1[C@@H](O)CC(=O)N1Cc1ccc(Oc2ccc(Cl)cc2F)nc1 [Example 43, (4S,5S)-1-{[6-(4-chloro-2-fluorophenoxy)pyridin-3-yl]methyl}4-hydroxy-5-methylpyrrolidin-2-one]	98%
Cc1ccc(Oc2ccc(CN3C(=O)C[C@@H](O)[C@@H]3C)cc2)cc1 [Example 10, (4R,5S)-4-hydroxy-5-methyl-1-{[4-(4-methylphenoxy)phenyl]methyl}pyrrolidin-2-one]	94%
Cc1ccc(Oc2ccc(CN3C(=O)OC[C@@H]3C)cn2)c(F)c1 [Example 25, (4S)-3-{[6-(2-fluoro-4-methylphenoxy)pyridin-3-y]methyl}-4-methyl-1,3-oxazolidin-2-one]	96%
C[C@H]1CCC(=O)N1Cc1ccc(Oc2ccc(C(F)F)cc2F)nc1 [Example 47, (5S)-1-({6-[4-(difluoromethy)-2-fluorophenoxy]pyridin-3-yl}methyl)-5-methylpyrrolidin-2-one]	99%
C[C@H]1COC(=O)N1Cc1cnc(Oc2c(F)cc(F)cc2F)nc1 [Example 24, (4S)-4-methyl-3-{[2-(2,4,6-trifluorophenoxy)pyrimidin-5-yl]methyl}-1,3-oxazolidin-2-one]	93%
Cc1ccc(Oc2cnc(CN3C(=O)CCC3C)nc2)cc1 (stereo not drawn) [Example 8, 5-methyl-1{[5-(4-methylphenoxy)pyrimidin-2-yl]methyl}pyrrolidin-2-one]	53%
C[C@H]1COC(=O)N1Cc1ccc(Oc2c(F)cc(F)cc2F)nc1 [Example 28, (4S)-4-methyl-3-{[6-(2,4,6-trifluorophenoxy)pyridin-3-yl]methyl}-1,3-oxazolidin-2-one]	96%
C[C@H]1[C@@H](O)CC(=O)N1Cc1ccc(Oc2ccc(F)cc2F)nc1 [Example 37, (4S,5S)-1{[-6-(2,4-difluorophenoxy)pyridin-3-yl]methyl}-4-hydroxy-5-methylpyrrolidin-2-one]	97%

Same assay, conditions: final concentration 10 μM; glutamic acid and glycine induced Ca2+ influx, HEK 293 cells expressing human GRIN1 and GRIN2B; 10 µM

Structure (SMILES)	% inhibited(10 μM)
Cc1ccc(Oc2ccc(CN3C(=O)CCC3C)cc2)cc1 (single isomer, unassigned) [Example 2, 5-methyl-1-{[4-(4-methylphenoxy)pheny]methyl}pyrrolidin-2-one (optical isomer)]	98%
Cc1ccc(Oc2ccc(CN3C(=O)CCC3C)cc2)cc1 (single isomer, unassigned) [Example 3, 5-methyl-1-{[4-(4-methylphenoxy)phenyl]methyl}pyrrolidin-2-one (optical isomer)]	99%
